Usually inhibition stands for the change of the read-out against control, counted positive when it falls. Broadly, the IC50 is the midpoint of a concentration-inhibition curve. One may read the Kd as the constant that tells how readily two partners part at equilibrium.

Calls of active or inactive are those of the source. The rule behind the calls is not given here.

From ChEMBL document CHEMBL5257103, “Identification of small molecule inhibitors against MMP-14 via High-Throughput screening” (Bioorg Med Chem, 2023) come the findings set out here.

For series [1], the target named is T1, Matrix metalloproteinase-14 (Homo sapiens, UniProt P50281). Put plainly: Inhibition of MMP-14 (unknown origin) using 5-FAM-TDVPNGFHVS (QXL520)-NH2 as fluorogenic substrate at 12.5 to 200 uM preincubated for 10 mins followed by substrate addition and measured for 50 mins by microplate reader assay. To be noted: dose 12.5-200 µM, time 60.0 min.
The target in series [2] is T1, Matrix metalloproteinase-14. Put plainly: Inhibition of MMP-14 (unknown origin) using 5-FAM-TDVPNGFHVS (QXL520)-NH2 as fluorogenic substrate preincubated for 10 mins followed by substrate addition and measured for 50 mins by microplate reader assay.
For series [3], the target named is 72 kDa type IV collagenase (Mus musculus) (UniProt P33434). Kind of series: Inhibition of MMP-2 in mouse fibroblast assessed as reduction in concanavalin-induced MMP-2 activity by measuring gelatin digestion incubated for 24 hrs by SDS-PAGE gel electrophoresis based gelatin zymography analysis. The series is classed as cell-based.
72 kDa type IV collagenase (Mus musculus), sequence (P33434 whole entry): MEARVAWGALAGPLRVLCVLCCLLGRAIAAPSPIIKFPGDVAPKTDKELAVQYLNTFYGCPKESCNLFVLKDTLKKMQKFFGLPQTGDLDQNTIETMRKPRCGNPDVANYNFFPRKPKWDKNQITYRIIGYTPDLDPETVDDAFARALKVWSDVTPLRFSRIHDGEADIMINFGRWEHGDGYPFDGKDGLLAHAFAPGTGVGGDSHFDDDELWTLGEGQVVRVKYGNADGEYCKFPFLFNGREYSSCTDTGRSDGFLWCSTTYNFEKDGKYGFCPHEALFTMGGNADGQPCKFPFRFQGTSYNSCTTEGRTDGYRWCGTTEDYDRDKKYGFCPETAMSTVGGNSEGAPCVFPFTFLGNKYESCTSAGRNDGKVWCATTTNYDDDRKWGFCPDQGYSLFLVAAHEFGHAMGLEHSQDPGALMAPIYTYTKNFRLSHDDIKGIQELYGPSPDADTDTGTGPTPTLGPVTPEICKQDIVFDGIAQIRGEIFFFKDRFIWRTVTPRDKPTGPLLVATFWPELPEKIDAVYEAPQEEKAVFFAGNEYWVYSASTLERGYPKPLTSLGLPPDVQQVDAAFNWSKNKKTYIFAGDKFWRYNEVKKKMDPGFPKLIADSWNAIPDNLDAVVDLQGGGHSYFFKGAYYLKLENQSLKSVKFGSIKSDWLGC
For series [4], the target named is T1, Matrix metalloproteinase-14. Kind of series: Inhibition of MMP-14 (unknown origin) using 5-FAM-TDVPNGFHVS (QXL520)-NH2 as fluorogenic substrate at 47.6 uM preincubated for 10 mins followed by substrate addition by primary HTS analysis relative to control.
Series [5] in a line: Cytotoxicity against human HUVEC cells assessed as cell viability upto 100 uM incubated for 4 hrs by MTS assay. To be noted: read-out: Activity. The series is classed as toxicity, cell-based. In general terms: Formazan colour is commonly taken as a measure of viable cells.
For series [6], the target named is T2, Collagenase 3 (Homo sapiens, UniProt P45452). Put plainly: Inhibition of MMP-13 (unknown origin) using QXL520-gamma-Abu-Pro-Cha-Abu-Smc-His-Ala-Dab(5-FAM)-Ala-Lys-NH2 as fluorogenic substrate preincubated for 10 mins followed by substrate addition and measured for 25 mins by microplate reader assay.
The target of series [7] is 72 kDa type IV collagenase (Homo sapiens) (UniProt P08253). Kind of series: Inhibition of MMP-2 (unknown origin) using QXL520-gamma-Abu-Pro-Cha-Abu-Smc-His-Ala-Dab(5-FAM)-Ala-Lys-NH2 as fluorogenic substrate at 1 to 100 uM preincubated for 10 mins followed by substrate addition and measured for 25 mins by microplate reader assay. To be noted: dose 1-100 µM, time 35.0 min.
72 kDa type IV collagenase (Homo sapiens), sequence (P08253 110-660 limits assumed): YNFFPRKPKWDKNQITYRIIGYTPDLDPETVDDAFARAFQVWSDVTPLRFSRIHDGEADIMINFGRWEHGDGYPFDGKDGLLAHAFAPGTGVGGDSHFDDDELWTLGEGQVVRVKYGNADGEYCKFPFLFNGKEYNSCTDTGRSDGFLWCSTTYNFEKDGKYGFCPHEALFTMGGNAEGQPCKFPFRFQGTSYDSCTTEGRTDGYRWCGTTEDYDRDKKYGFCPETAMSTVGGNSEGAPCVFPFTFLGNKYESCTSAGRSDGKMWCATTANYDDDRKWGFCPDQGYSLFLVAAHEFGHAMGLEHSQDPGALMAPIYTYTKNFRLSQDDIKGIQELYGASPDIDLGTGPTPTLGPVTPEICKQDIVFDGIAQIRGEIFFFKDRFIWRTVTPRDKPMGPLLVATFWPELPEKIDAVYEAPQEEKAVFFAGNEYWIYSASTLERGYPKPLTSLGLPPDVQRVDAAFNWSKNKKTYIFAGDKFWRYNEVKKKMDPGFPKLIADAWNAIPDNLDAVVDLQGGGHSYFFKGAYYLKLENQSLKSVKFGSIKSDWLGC

The target in series [8] is T3, Matrilysin (Homo sapiens) (UniProt P09237).
T3 sequence (whole entry): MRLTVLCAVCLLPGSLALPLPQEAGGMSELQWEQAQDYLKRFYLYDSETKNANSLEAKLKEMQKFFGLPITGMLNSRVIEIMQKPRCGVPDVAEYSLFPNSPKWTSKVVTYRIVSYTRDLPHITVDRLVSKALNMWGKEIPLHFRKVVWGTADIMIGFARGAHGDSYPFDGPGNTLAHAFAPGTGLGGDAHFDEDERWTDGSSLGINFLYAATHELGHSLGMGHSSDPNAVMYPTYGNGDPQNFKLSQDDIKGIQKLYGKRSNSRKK
Kind of series: Inhibition of MMP-7 (unknown origin) using QXL520-gamma-Abu-Pro-Cha-Abu-Smc-His-Ala-Dab(5-FAM)-Ala-Lys-NH2 as fluorogenic substrate at 1 to 100 uM preincubated for 10 mins followed by substrate addition and measured for 25 mins by microplate reader assay. To be noted: dose 1-100 µM, time 35.0 min.

Series [9] deals with T1, Matrix metalloproteinase-14. Kind of series: Binding affinity to […] sensor chip immobilized MMP-14 catalytic domain (unknown origin) assessed as equilibrium dissociation constant by surface plasmon resonance analysis. On the technique in general: Surface plasmon resonance follows binding to a sensor surface in real time, without labels.
For series [10], the target named is T4, Matrix metalloproteinase-9 (Homo sapiens, UniProt P14780). Kind of series: Inhibition of MMP-9 (unknown origin) using QXL520-gamma-Abu-Pro-Cha-Abu-Smc-His-Ala-Dab(5-FAM)-Ala-Lys-NH2 as fluorogenic substrate preincubated for 10 mins followed by substrate addition and measured for 25 mins by microplate reader assay.
T4 sequence (P14780 whole entry): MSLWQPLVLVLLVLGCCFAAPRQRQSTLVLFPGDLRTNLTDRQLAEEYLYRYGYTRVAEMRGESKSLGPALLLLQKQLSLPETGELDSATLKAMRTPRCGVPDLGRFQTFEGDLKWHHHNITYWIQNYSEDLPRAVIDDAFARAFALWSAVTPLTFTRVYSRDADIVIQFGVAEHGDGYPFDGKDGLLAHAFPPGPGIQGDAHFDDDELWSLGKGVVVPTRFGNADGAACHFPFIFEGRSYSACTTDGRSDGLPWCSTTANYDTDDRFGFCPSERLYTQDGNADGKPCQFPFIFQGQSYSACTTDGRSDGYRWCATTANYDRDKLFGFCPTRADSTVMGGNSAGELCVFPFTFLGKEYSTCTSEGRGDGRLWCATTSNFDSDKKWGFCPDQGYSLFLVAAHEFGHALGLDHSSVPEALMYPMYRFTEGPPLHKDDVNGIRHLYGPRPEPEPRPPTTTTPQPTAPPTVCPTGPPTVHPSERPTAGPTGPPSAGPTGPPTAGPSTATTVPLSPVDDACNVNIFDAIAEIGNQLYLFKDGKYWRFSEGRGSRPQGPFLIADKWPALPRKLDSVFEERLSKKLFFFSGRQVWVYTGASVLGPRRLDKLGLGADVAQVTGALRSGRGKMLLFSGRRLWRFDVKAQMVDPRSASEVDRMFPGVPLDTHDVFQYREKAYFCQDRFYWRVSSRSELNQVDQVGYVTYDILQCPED
The target of series [11] is T2, Collagenase 3. Kind of series: Inhibition of MMP-13 (unknown origin) using QXL520-gamma-Abu-Pro-Cha-Abu-Smc-His-Ala-Dab(5-FAM)-Ala-Lys-NH2 as fluorogenic substrate at 1 to 100 uM preincubated for 10 mins followed by substrate addition and measured for 25 mins by microplate reader assay. The conditions noted are these: dose 1-100 µM, time 35.0 min.
The target of series [12] is T4, Matrix metalloproteinase-9. Kind of series: Inhibition of MMP-9 (unknown origin) using QXL520-gamma-Abu-Pro-Cha-Abu-Smc-His-Ala-Dab(5-FAM)-Ala-Lys-NH2 as fluorogenic substrate at 1 to 100 uM preincubated for 10 mins followed by substrate addition and measured for 25 mins by microplate reader assay. The conditions noted are these: dose 1-100 µM, time 35.0 min.
In series [13] the target is T2, Collagenase 3. Put plainly: Inhibition of MMP-13 (unknown origin) using QXL520-gamma-Abu-Pro-Cha-Abu-Smc-His-Ala-Dab(5-FAM)-Ala-Lys-NH2 as fluorogenic substrate at 100 uM preincubated for 10 mins followed by substrate addition and measured for 25 mins by microplate reader assay. To be noted: time 35.0 min.
Series [14] concerns the target 72 kDa type IV collagenase (Homo sapiens) (UniProt P08253). Put plainly: Inhibition of MMP-2 (unknown origin) using QXL520-gamma-Abu-Pro-Cha-Abu-Smc-His-Ala-Dab(5-FAM)-Ala-Lys-NH2 as fluorogenic substrate at 100 uM preincubated for 10 mins followed by substrate addition and measured for 25 mins by microplate reader assay. The conditions noted are these: time 35.0 min.

In series [15] the target is T3, Matrilysin (Homo sapiens). Kind of series: Inhibition of MMP-7 (unknown origin) using QXL520-gamma-Abu-Pro-Cha-Abu-Smc-His-Ala-Dab(5-FAM)-Ala-Lys-NH2 as fluorogenic substrate at 100 uM preincubated for 10 mins followed by substrate addition and measured for 25 mins by microplate reader assay. The conditions noted are these: time 35.0 min.
For series [16], the target named is T4, Matrix metalloproteinase-9. Kind of series: Inhibition of MMP-9 (unknown origin) using QXL520-gamma-Abu-Pro-Cha-Abu-Smc-His-Ala-Dab(5-FAM)-Ala-Lys-NH2 as fluorogenic substrate at 100 uM preincubated for 10 mins followed by substrate addition and measured for 25 mins by microplate reader assay. To be noted: time 35.0 min.

For the compound `Nc1cc(Cl)c2cccnc2c1O`, in series [1], the inhibition result was “Dose-Dependent Effect”. Moreover, the IC50 in series [2] is 71.2 µM. The inhibition entry in series [3] is “Active”.

In series [4], `CCCC(C)C1(CC)C(=O)NC(=O)NC1=O` (stereo unspecified) gave an inhibition above 85%.

Take `Oc1c(Cl)cc(Cl)c2cccnc12` [CHLOROXINE]: the inhibition result in series [4] and in series [3] was “Active” each time. Moreover, the viability at 4 h, up to 100 µM in series [5] was above 95%. Also, the IC50 in series [2] was 25.6 µM; at Collagenase 3 [6], 19.6 µM; in series [10], 15.9 µM. In addition, the inhibition result in series [7] and in series [8] was “inactive” in each case. In [9], the Kd is 2.4 µM.

As to `Oc1c(I)cc(Cl)c2cccnc12` [CLIOQUINOL], the inhibition in series [4] was 83%; at Collagenase 3 [13], below 5%; in series [14], below 5%; in [15], below 5%; in [16] it was below 5%. In addition, the viability at 4 h, up to 100 µM in series [5] was above 95%. In series [2], it took 26.9 µM to reach half-maximal inhibition (IC50). Also, the inhibition entry (at Collagenase 3 [11]; in series [7]; in series [8]; in series [12]) was “inactive” each time. The Kd in [9] worked out at 1.2 µM. Besides, the inhibition result in series [3] is “Active”.
